Measured values as given in patent US20080262108A1, “Method” (priority 2004, published 2008).

How the values were obtained:
[1] = test system: CEL; assay: CEL expression at the protein level in treated macrophages (Western blot); assay type: cell-based, human; settings: monocyte-derived macrophages cultured for 7 days, treated for 24 hours; LPS 1 μg/ml, IFN-γ 200 U/ml, oxLDL 50 μg protein/ml; cells from four donors; FIG. 4B
Description: Macrophage cell culture. Mononuclear cells were isolated through a Ficoll-Hypaque discontinuous gradient (Boyum et al. 1976) from buffy coats obtained from the local blood bank (Sahlgrenska University Hospital, Göteborg, Sweden). The cells were resuspended in RPMI 1640 medium (PM Laboratories GmbH, Pasching, Austria) supplemented with 2 mmol/l glutamine, 2 mmol/l nonessential amino acids, 100 U/ml penicillin, 100 μg/ml streptomycin, and 20 mmol/l sodium pyruvate. Monocytes were obtained by allowing cells to adhere to plastic for 60 min at 37° C. Non-adhered cells were removed by washing with PBS and the adhered monocytes were used immediately or after 4 hours for experiments or left to differentiate into macrophages in supplemented RPMI1640 containing 20% heat-inactivated human serum for up to 9 days. Macrophages were then approximately 95% pure, as judged by flow cytometry. […] The viability of cells was >95% in all incubations, as determined by Trypan blue exclusion.
Exposure of macrophages to oxidatively modified LDL. […] Protein concentration of lipoproteins was determined with the BioRad protein assay using γ-globulin as standard.
Western blot analysis. […] The primary antibodies were detected with POD-conjugated secondary IgG and ECL™ Western Blotting Detection Reagents (Amersham Biosciences), visualized on ECL™ films (Amersham Biosciences).

[2] = test system: CEL; assay: CEL expression at the mRNA level in treated macrophages (RT-PCR); assay type: cell-based, human; settings: monocyte-derived macrophages cultured for 7 days, treated for 24 hours; LPS 1 μg/ml, IFN-γ 200 U/ml, oxLDL 50 μg protein/ml; cells from four donors; FIG. 4C
Description: Macrophage cell culture. Mononuclear cells were isolated through a Ficoll-Hypaque discontinuous gradient (Boyum et al. 1976) from buffy coats obtained from the local blood bank (Sahlgrenska University Hospital, Göteborg, Sweden). The cells were resuspended in RPMI 1640 medium (PM Laboratories GmbH, Pasching, Austria) supplemented with 2 mmol/l glutamine, 2 mmol/l nonessential amino acids, 100 U/ml penicillin, 100 μg/ml streptomycin, and 20 mmol/l sodium pyruvate. Monocytes were obtained by allowing cells to adhere to plastic for 60 min at 37° C. Non-adhered cells were removed by washing with PBS and the adhered monocytes were used immediately or after 4 hours for experiments or left to differentiate into macrophages in supplemented RPMI1640 containing 20% heat-inactivated human serum for up to 9 days. Macrophages were then approximately 95% pure, as judged by flow cytometry. For experiments the cells were incubated for 24 h with supplemented RPMI1640 (pH 7.4) with 1 μg/mL lipopolysaccaride (LPS), interferon-gamma (γ-IFN) 200 U/mL (Sigma Aldrich, Stockholm, Sweden). The viability of cells was >95% in all incubations, as determined by Trypan blue exclusion.
Exposure of macrophages to oxidatively modified LDL. […] Protein concentration of lipoproteins was determined with the BioRad protein assay using γ-globulin as standard. […]

| Molecule | CEL expression at the protein level [1] | CEL expression at the mRNA level [2] |
| --- | --- | --- |
| lipopolysaccharide [LPS] | could not detect any consistent increase or decrease in CEL expression | could not detect any consistent increase or decrease in CEL expression |
| interferon-gamma (protein, UniProt P01579 24-161, looked up, interferon-gamma (Sigma Aldrich) used as stimulus on macrophages) Interferon gamma: QDPYVKEAENLKKYFNAGHSDVADNGTLFLGILKNWKEESDRKIMQSQIVSFYFKLFKNFKDDQSIQKSVETIKEDMNVKFFNSNKKKRDDFEKLTNYSVTDLNVQRKAIHELIQVMAELSPAAKTGKRKRSQMLFRG | could not detect any consistent increase or decrease in CEL expression | could not detect any consistent increase or decrease in CEL expression |
